What all share (format): binding
Experiment [1] has as its target T1, panel of 442 kinases (Homo sapiens, UniProt O60331).
T1 construct: purchased KINOMEscan
Conditions: Compound Concentration 10 µM. The source says: (§1) We assessed the selectivity of members of this scaffold using the KINOMEscan methodology across a near comprehensive panel of 442 kinases [[18,27]].

Experiment [2] concerns the target T2, panel of 442 kinases (Homo sapiens, UniProt O94921).
T2 construct: purchased KINOMEscan
Conditions: Compound Concentration 10 µM.
Description: as §1

Experiment [3] concerns the target T3, panel of 442 kinases (Homo sapiens, UniProt Q52WX2).
T3 construct: purchased KINOMEscan
Conditions: kinase SBK1; compound concentration 10 µM.
Description: as §1

T1 sequence (O60331 whole entry): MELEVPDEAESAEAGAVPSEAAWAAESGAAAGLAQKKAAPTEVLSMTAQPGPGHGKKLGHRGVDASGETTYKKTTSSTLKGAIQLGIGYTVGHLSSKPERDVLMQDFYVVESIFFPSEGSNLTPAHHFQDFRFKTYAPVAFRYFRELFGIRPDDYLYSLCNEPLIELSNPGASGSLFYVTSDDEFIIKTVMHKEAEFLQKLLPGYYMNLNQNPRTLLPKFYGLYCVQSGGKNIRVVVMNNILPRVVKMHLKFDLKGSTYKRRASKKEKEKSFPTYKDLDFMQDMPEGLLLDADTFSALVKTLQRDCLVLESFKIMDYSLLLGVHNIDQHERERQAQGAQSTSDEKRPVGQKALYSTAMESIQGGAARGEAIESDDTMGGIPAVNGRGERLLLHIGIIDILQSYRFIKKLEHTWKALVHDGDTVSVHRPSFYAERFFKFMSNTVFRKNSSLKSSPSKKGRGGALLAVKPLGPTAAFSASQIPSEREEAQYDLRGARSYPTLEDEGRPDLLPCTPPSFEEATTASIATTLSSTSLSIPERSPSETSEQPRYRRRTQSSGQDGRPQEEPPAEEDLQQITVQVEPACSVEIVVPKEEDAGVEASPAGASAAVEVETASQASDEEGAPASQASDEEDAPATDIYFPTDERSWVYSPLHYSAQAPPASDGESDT
T3 sequence (Q52WX2 whole entry): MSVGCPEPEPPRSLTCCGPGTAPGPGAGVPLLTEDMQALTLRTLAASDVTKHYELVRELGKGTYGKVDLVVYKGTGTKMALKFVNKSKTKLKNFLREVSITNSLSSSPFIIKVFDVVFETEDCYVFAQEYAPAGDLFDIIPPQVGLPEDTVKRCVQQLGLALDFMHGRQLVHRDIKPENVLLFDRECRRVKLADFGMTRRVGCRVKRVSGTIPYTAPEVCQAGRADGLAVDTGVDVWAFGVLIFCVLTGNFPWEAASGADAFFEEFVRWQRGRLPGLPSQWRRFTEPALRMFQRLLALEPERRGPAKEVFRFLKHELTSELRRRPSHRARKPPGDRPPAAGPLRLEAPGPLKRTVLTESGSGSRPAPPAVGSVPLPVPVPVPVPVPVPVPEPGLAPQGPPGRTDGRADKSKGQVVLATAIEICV
T2 sequence (O94921 whole entry): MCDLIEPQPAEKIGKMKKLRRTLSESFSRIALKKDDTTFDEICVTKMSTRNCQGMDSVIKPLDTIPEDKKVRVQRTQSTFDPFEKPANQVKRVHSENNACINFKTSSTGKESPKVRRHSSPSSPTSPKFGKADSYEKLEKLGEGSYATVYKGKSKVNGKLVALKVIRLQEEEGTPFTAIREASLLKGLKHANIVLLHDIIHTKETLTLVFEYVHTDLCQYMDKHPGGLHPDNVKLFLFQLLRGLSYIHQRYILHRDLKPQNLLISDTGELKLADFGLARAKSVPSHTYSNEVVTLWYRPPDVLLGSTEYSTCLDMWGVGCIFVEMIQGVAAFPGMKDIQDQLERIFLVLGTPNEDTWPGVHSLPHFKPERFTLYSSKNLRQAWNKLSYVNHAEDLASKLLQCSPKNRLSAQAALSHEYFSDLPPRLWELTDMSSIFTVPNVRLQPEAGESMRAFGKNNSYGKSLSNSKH

As for `COc1cc(C(=O)N2CCC(N3CCN(C)CC3)CC2)ccc1Nc1ncc2c(n1)N(C1CCCC1)c1ccccc1C(=O)N2C` [Compound 25, 11-cyclopentyl-2-((2-methoxy-4-(4-(4-methylpiperazin-1-yl)piperidine-1-carbonyl)phenyl)amino)-5-methyl-5H-benzo[e]pyrimido[5,4-b][1,4]diazepin-6(11H)-one], the “KINOMEscan: PIP5K1C” value in experiment [1] was 100. Also, in experiment [2], the “KINOMEscan: PFTK1” value was found to be 100. Moreover, in experiment [3], the “% Ctrl, SBK1” value was 72 % Ctrl.
Turning to `COc1cc(C(=O)N2CCC(N3CCN(C)CC3)CC2)ccc1Nc1ncc2c(n1)N1CCc3cccc(c31)C(=O)N2C` [Compound 24], the “KINOMEscan: PIP5K1C” value in experiment [1] turned out to be 6.3. Further, the “% Ctrl, SBK1” value in experiment [3] was found to be 80 % Ctrl.
As to `COc1cc(C(=O)N2CCC(N3CCN(C)CC3)CC2)ccc1Nc1ncc2c(n1)N(C)c1ccccc1C(=O)N2C` [15 (LRRK2-IN-1)], the “KINOMEscan: PIP5K1C” value in experiment [1] is on record as 96. Moreover, the “KINOMEscan: PFTK1” value in experiment [2] worked out at 81. For the same molecule, the “% Ctrl, SBK1” value in experiment [3] amounted to 100 % Ctrl.
The like results for `CCOc1cc(C(=O)N2CCC(N3CCN(C)CC3)CC2)ccc1Nc1ncc2c(n1)N(C1CCCC1)c1ccccc1C(=O)N2C` [Compound 26] were, in that order, 100, 100 and 99 % Ctrl.

The values are drawn from PMC3914206.
